Here are results for six compounds from patent US9126952B2, “Morpholinylquinazolines” (Merck Patent GmbH, priority 2010, dated 2015).

Experiment [1] has as its system kinases of the PI3K isoenzyme family. The note with it: cited from earlier work.
Another experiment concerns mammal cells. The following applies: Rosenzweig et al. (1999); cited from earlier work.
Experiment [2] has as its target T1, DNA-PK (Homo sapiens (Human), UniProt P78527). The following applies: ATP-competitive; Hardcastle et al. (2005); cited from earlier work.
The target in experiment [3] is T1, DNA-PK. Kind of experiment: DNA-PK/biochemical assay (FlashPlate kinase assay). The following applies: 5 μM ATP, 90 min, room temperature; read-out: Binding DNA-PK IC50. The procedure:
[…] To this end, 1.5 μg of the DNA-PK/protein complex and 100 ng of biotinylated substrate, such as, for example, PESQEAFADLWKK biotin-NH2 (“biotin-DNA-PK peptide”), in a total volume of 36.5 μl (34.25 mM HEPES/KOH, 7.85 mM Tris-HCl, 68.5 mM KCl, 5 μM ATP, 6.85 mM MgCl2, 0.5 mM EDTA, 0.14 mM EGTA, 0.69 mM DTT, pH 7.4), were incubated at room temperature for 90 min with 500 ng of DNA from calf thymus, 0.1 μCi of 33P-ATP and 1.8% of DMSO per well with or without the test compound. The reaction was stopped using 50 μl/well of 200 mM EDTA. After incubation for a further 30 min at room temperature, the liquid was removed. Each well was washed three times with 100 μl of 0.9% sodium chloride solution. A non-specific reaction (blank value) was determined using 10 μM of a proprietary kinase inhibitor. The radioactivity measurement was carried out by means of a TopCount. IC50 values were calculated in RS1. • Literature: Kashishian et al. (2003) Molecular Cancer Therapeutics 1257.

Where two headings read alike, the source gives them in different places.

In the case of `CCN1CCN(CC(=O)Nc2ccc(-c3cccc4c(=O)cc(N5CCOCC5)oc34)c3sc4ccccc4c23)CC1` [KU-0060648], the “inhibition of PI3K isoenzyme family kinases” value in experiment [1] was “potently inhibited”.

For the compound `O=c1cc(N2CCOCC2)oc2c(-c3ccccc3)cccc12` [LY294002], the “increase in sensitivity to ionising irradiation in cellular terms” value with mammal cells is listed as “only a weak increase in sensitivity to ionising irradiation”.

Take `O=c1cc(N2CCOCC2)oc2c(-c3cccc4c3sc3ccccc34)cccc12` [NU-7441]: the IC50 on DNA-PK [2] was 20 nM.

With `O=C(NC1CCCN(c2nc(Cl)nc3cc(N4CCOCC4)ccc23)C1)c1cccs1` (stereo not drawn) [compound 64, N-[1-(2-Chloro-7-morpholin-4-yl-quinazolin-4-yl)-piperidin-3-yl]-thiophene-2-carboxamide], the concentration for half-maximal inhibition (IC50) on DNA-PK [3] fell in the range of 100 to 500 nM.

`O[C@@H](c1nccs1)C1CCCN(c2ncnc3cc(N4CCOCC4)ccc23)C1` (stereo partly drawn) [compound 65, (R)-[1-(7-Morpholin-4-ylquinazolin-4-yl)-piperidin-3-yl]-thiazol-2-yl-methanol]: the IC50 on DNA-PK [3] was below 100 nM.

For `O[C@H](c1nccs1)C1CCCN(c2ncnc3cc(N4CCOCC4)ccc23)C1` (stereo partly drawn) [compound 66], the half-maximal inhibitory concentration (IC50) at DNA-PK [3] was below 100 nM.

The IC50 is the point on the concentration scale where inhibition reaches its midpoint.
